# How the values were obtained:
# [1] = test system: crabgrass, large; experiment: Test A preemergence; type: in vivo, Digitaria sanguinalis; conditions: 0 to 100 scale
# Summary of the method: (§1)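 After sowing in a sand–loam mix, pots received compound preemergence by directed soil spray, or postemergence once plants reached the one- to two-leaf stage (2–10 cm). Formulation contained surfactant in a non-phytotoxic solvent. Injury was scored visually after ~10 greenhouse days, 0–100 scale.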
# [2] = test system: pigweed; experiment: Test A preemergence; type: in vivo, Amaranthus retroflexus; conditions: 0 to 100 scale
# Summary of the method: as §1
# [3] = test system: barnyardgrass; experiment: Test C flooded paddy test; type: in vivo, Echinochloa crus-galli; conditions: Flood
# Summary of the method: (§2)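 Under a constant 3 cm flood, test compounds went directly into the paddy water. Following 13 to 15 days of greenhouse growth, treated species and controls were compared by eye.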
# [4] = test system: crabgrass, large; experiment: Test A postemergence; type: in vivo, Digitaria sanguinalis
# Summary of the method: as §1
# [5] = test system: corn; experiment: Test A preemergence; type: in vivo, Zea mays; conditions: 0 to 100 scale
# Summary of the method: as §1
# [6] = test system: barnyardgrass; experiment: Test A postemergence; type: in vivo, Echinochloa crus-galli; conditions: Postemergence
# Summary of the method: as §1
# [7] = test system: velvetleaf; experiment: Test A postemergence; type: in vivo, Abutilon theophrasti
# Summary of the method: as §1
# [8] = test system: wheat; experiment: Test A preemergence; type: in vivo, Triticum aestivum; conditions: preemergence
# Summary of the method: as §1
# [9] = test system: ducksalad; experiment: Test C flooded paddy test; type: in vivo, Heteranthera limosa; conditions: Flood
# Summary of the method: as §2
# [10] = test system: pigweed; experiment: Test A postemergence; type: in vivo, Amaranthus retroflexus
# Summary of the method: as §1
# [11] = test system: morningglory; experiment: Test A preemergence; type: in vivo, Ipomoea spp.; conditions: 0 to 100 scale
# Summary of the method: as §1
# [12] = test system: foxtail, giant; experiment: Test A postemergence; type: in vivo, Setaria faberii
# Summary of the method: as §1
# [13] = test system: morningglory; experiment: Test A postemergence; type: in vivo, Ipomoea spp.
# Summary of the method: as §1
# [14] = test system: velvetleaf; experiment: Test A preemergence; type: in vivo, Abutilon theophrasti; conditions: 0 to 100 scale
# Summary of the method: as §1
# [15] = test system: sedge, umbrella; experiment: Test C flooded paddy test; type: in vivo, Cyperus difformis; conditions: Flood
# Summary of the method: as §2
# [16] = test system: rice; experiment: Test C flooded paddy test; type: in vivo, Oryza sativa; conditions: Flood
# Summary of the method: as §2
# [17] = test system: barnyardgrass; experiment: Test A preemergence; type: in vivo, Echinochloa crus-galli; conditions: 0 to 100 scale
# Summary of the method: as §1
# [18] = test system: corn; experiment: Test A postemergence; type: in vivo, Zea mays
# Summary of the method: as §1
# [19] = test system: wheat; experiment: Test A postemergence; type: in vivo, Triticum aestivum
# Summary of the method: as §1
# [20] = test system: foxtail, giant; experiment: Test A preemergence; type: in vivo, Setaria faberii; conditions: 0 to 100 scale
# Summary of the method: as §1
# [21] = Preemergence, 500 g ai/ha, 0 no effect, 100 complete control
# [22] = preemergence, 125 g ai/ha, visual injury, approx. 10 days
# [23] = 62 g ai/ha, scale 0 to 100 (0 no effect, 100 complete control)
# [24] = Postemergence, 500 g ai/ha, visual rating after approx. 10 days, 0 to 100 scale (0 no effect, 100 complete control)
# [25] = postemergence, 125 g ai/ha, about 10 days, visual rating on 0 to 100 scale (0 no effect, 100 complete control)
# [26] = 125 g ai/ha, 0 to 100 scale, 0 no effect, 100 complete control
# [27] = 500 g ai/ha, visual rating after approx. 10 days, 0 to 100 scale (0 no effect, 100 complete control)
# [28] = 125 g ai/ha, visual injury, 0 to 100 scale, approx. 10 days
# [29] = 500 g ai/ha, visual injury after approx. 10 days, 0 to 100 scale (0 no effect, 100 complete control)
# [30] = 31 g ai/ha, scale 0 to 100 (0 no effect, 100 complete control)
compound,measurement,setting,value
CCc1cc(C(=O)NOC(C)(C)CC)nn1Cc1cccc(OC(F)(F)F)c1 [Compound 71],"Crabgrass, Large plant response rating",[1]; [21],100
same,"Crabgrass, Large plant response rating",[1]; [22],90
same,Pigweed plant response rating,[2]; [21],100
same,Pigweed plant response rating,[2]; [22],80
same,"Plant response rating, Barnyardgrass",[3]; [23],0
same,"Plant response rating, Barnyardgrass","[3]; 125 g ai/ha, scale 0 to 100",20
same,"Plant response rating, Barnyardgrass","[3]; 250 g ai/ha, scale 0 to 100",40
same,"Crabgrass, Large plant response rating",[4]; [24],80
same,"Crabgrass, Large plant response rating",[4]; [25],40
same,Corn plant response rating,[5]; [21],10
same,Corn plant response rating,[5]; [22],0
same,Barnyardgrass plant response rating,[6]; [26],30
same,Barnyardgrass plant response rating,[6]; [27],70
same,Velvetleaf plant response rating,[7]; [24],100
same,Velvetleaf plant response rating,[7]; [25],50
same,Wheat plant response rating,[8]; [28],0
same,Wheat plant response rating,[8]; [29],70
same,"Plant response rating, Ducksalad",[9]; [23],0
same,"Plant response rating, Ducksalad","[9]; 125 g ai/ha, scale 0 to 100",0
same,"Plant response rating, Ducksalad","[9]; 250 g ai/ha, scale 0 to 100",0
same,Pigweed plant response rating,[10]; [24],80
same,Pigweed plant response rating,[10]; [25],40
same,Morningglory plant response rating,[11]; [21],50
same,Morningglory plant response rating,[11]; [22],20
same,"Foxtail, Giant plant response rating",[12]; [24],70
same,"Foxtail, Giant plant response rating",[12]; [25],40
same,Morningglory plant response rating,[13]; [24],40
same,Morningglory plant response rating,[13]; [25],40
same,Velvetleaf plant response rating,[14]; [21],40
same,Velvetleaf plant response rating,[14]; [22],30
same,"Plant response rating, Sedge, Umbrella",[15]; [23],70
same,"Plant response rating, Sedge, Umbrella","[15]; 125 g ai/ha, scale 0 to 100",75
same,"Plant response rating, Sedge, Umbrella","[15]; 250 g ai/ha, scale 0 to 100",85
same,"Plant response rating, Rice",[16]; [23],0
same,"Plant response rating, Rice","[16]; 125 g ai/ha, scale 0 to 100",30
same,"Plant response rating, Rice","[16]; 250 g ai/ha, scale 0 to 100",45
same,Barnyardgrass plant response rating,[17]; [21],80
same,Barnyardgrass plant response rating,[17]; [22],60
same,Corn plant response rating,[18]; [24],50
same,Corn plant response rating,[18]; [25],30
same,Wheat plant response rating,[19]; [24],50
same,Wheat plant response rating,[19]; [25],30
same,"Foxtail, Giant plant response rating",[20]; [21],100
same,"Foxtail, Giant plant response rating",[20]; [22],80
CCONC(=O)c1cc(C)n(Cc2cccc(OC(F)(F)F)c2)n1 [Compound 73],"Crabgrass, Large plant response rating",[1]; [21],50
same,"Crabgrass, Large plant response rating",[1]; [22],30
same,Pigweed plant response rating,[2]; [21],100
same,Pigweed plant response rating,[2]; [22],90
same,"Plant response rating, Barnyardgrass",[3]; [30],0
same,"Plant response rating, Barnyardgrass",[3]; [23],0
same,"Plant response rating, Barnyardgrass","[3]; 125 g ai/ha, scale 0 to 100",0
same,"Plant response rating, Barnyardgrass","[3]; 250 g ai/ha, scale 0 to 100",0
same,"Crabgrass, Large plant response rating",[4]; [24],60
same,"Crabgrass, Large plant response rating",[4]; [25],40
same,Corn plant response rating,[5]; [21],50
same,Corn plant response rating,[5]; [22],30
same,Barnyardgrass plant response rating,[6]; [26],40
same,Barnyardgrass plant response rating,[6]; [27],70
same,Velvetleaf plant response rating,[7]; [24],80
same,Velvetleaf plant response rating,[7]; [25],30
same,Wheat plant response rating,[8]; [28],0
same,Wheat plant response rating,[8]; [29],80
same,"Plant response rating, Ducksalad",[9]; [30],0
same,"Plant response rating, Ducksalad",[9]; [23],20
same,"Plant response rating, Ducksalad","[9]; 125 g ai/ha, scale 0 to 100",45
same,"Plant response rating, Ducksalad","[9]; 250 g ai/ha, scale 0 to 100",55
same,Pigweed plant response rating,[10]; [24],90
same,Pigweed plant response rating,[10]; [25],70
same,Morningglory plant response rating,[11]; [21],30
same,Morningglory plant response rating,[11]; [22],10
same,"Foxtail, Giant plant response rating",[12]; [24],70
same,"Foxtail, Giant plant response rating",[12]; [25],40
same,Morningglory plant response rating,[13]; [24],40
same,Morningglory plant response rating,[13]; [25],30
same,Velvetleaf plant response rating,[14]; [21],60
same,Velvetleaf plant response rating,[14]; [22],10
same,"Plant response rating, Sedge, Umbrella",[15]; [30],0
same,"Plant response rating, Sedge, Umbrella",[15]; [23],0
same,"Plant response rating, Sedge, Umbrella","[15]; 125 g ai/ha, scale 0 to 100",0
same,"Plant response rating, Sedge, Umbrella","[15]; 250 g ai/ha, scale 0 to 100",30
same,"Plant response rating, Rice",[16]; [30],0
same,"Plant response rating, Rice",[16]; [23],0
same,"Plant response rating, Rice","[16]; 125 g ai/ha, scale 0 to 100",0
same,"Plant response rating, Rice","[16]; 250 g ai/ha, scale 0 to 100",0
same,Barnyardgrass plant response rating,[17]; [21],60
same,Barnyardgrass plant response rating,[17]; [22],50
same,Corn plant response rating,[18]; [24],80
same,Corn plant response rating,[18]; [25],40
same,Wheat plant response rating,[19]; [24],40
same,Wheat plant response rating,[19]; [25],0
same,"Foxtail, Giant plant response rating",[20]; [21],60
same,"Foxtail, Giant plant response rating",[20]; [22],30

# Source: US20150105252A1, “SUBSTITUTED PYRAZOLES AS HERBICIDES” (E I DU PONT DE NEMOURS AND COMPANY, priority 2013, published 2015)
